Literature values in patent publication US5200396A, “Method of treating neurodegenerative disorders using epidermal growth factor” (Zambon Group S.p.A., priority 1990, dated 1993).

Tested on: rats with lesion of the nigrostriatal pathway
Conditions: lesion of the nigrostriatal pathway model; Brain Research, 459, 398, (1988)

NGF: growth factor acting as trophic factor towards some neuronal types
efficacy in changing the rotational behaviour of the animal: did not show, in practice, any efficacy
